Columns and labels:
[1] = system: T47D-5R cells expressing Neu or Neu mutants (NYPD, YC, YD, YE); assay: Transwell migration assay, HRG-induced; type: cell-based, human; conditions: for HRG-induced migration of Neu cells: starting 4 hrs after HRG treatment, RNA or protein synthesis inhibitor
Procedure: (§1) Cell migration was tested using 8 μm-pore polycarbonate membrane Transwell chambers (Corning Costar Products, Acton, Mass., USA) as described previously^3. In brief, the bottom side of the membrane was coated with 25 μg/ml rat tail collagen I (Roche). Serum starved cells were plated in the top Transwell chamber. Medium with or without 1 nM HRG-β1 (R&D systems, Inc., Minneapolis, Minn., USA) was added to the bottom chamber and cells were allowed to migrate for 24 hours. Non-migrated cells were scraped off the top of the membrane. Migrated cells were fixed in 4% formaldehyde and stained in 0.1% crystal violet. Cells were counted under a microscope in ten high power fields. Migration was expressed as cell number per mm^2. In some instances, cells were pre-incubated for 60 minutes with the U0126 MEK inhibitor (50 μM; Promega), the LY294002 PI3K inhibitor (50 μM; Calbiochem-Novabiochem Corporation, San Diego, Calif., USA), the SB203580 p38 MAPK inhibitor (20 μM; Calbiochem), a Src inhibitor (2.5 μM), the U-73122 PLC inhibitor (2 μM; Calbiochem), cycloheximide (10 μg/ml; Sigma) or 5,6-dichloro-1-β-D-ribofuranosylbenzimidazole (20 μg/ml; Fluka Chemie GmbH, Buchs, Switzerland). Cells were then allowed to migrate for 8 hours before counting.
(§2) Cells were transfected with siRNA using Oligofectamine (GIBCO) according to the manufacturer's instructions. The following 21-mer oligoribonucleotide pairs (obtained from Xeragon Inc., Huntsville, Ala., USA) were used: for Shc (accession number HSU7377) nucleotide 236 to 25640, for Memo (CGI-27; accession number AF132961) nucleotide 460 to 480 and for control LacZ (accession number M55068) nucleotide 4277 to 4297. Cells were plated for migration assay 3 days after siRNA transfection and allowed to migrate for 24 hours. Cell lysates were also prepared 3 and 4 days after transfection and analyzed by Western blotting using a specific anti-Shc antibody (BD Transduction laboratories, Heidelberg, Germany). For Memo, mRNA was extracted using RNeasy Mini (Qiagen, Cologne, Germany) and quantitative radioactive PCR^41 was performed using Memo specific primers (forward from nucleotide 90 to 111 and reverse from nucleotide 235 to 256).
Peptides were delivered into cells using Chariot protein transfection reagent (Active Motif, Rixensart, Belgium) according to the instruction manual. 16 aa-peptides spanning Tyr residue 1201 of Neu (YC peptide) and Tyr residue 1227 of Neu (YD peptide) were obtained from Neosystem (Strasbourg, France) in phosphorylated and non phosphorylated forms. Cells were plated for migration 30 minutes after peptide transfection and the assay was finished after 22 hours.

T47D cells = assay: Transwell migration assay; type: cell-based, human; conditions: FIG. 1a, 7f
Procedure: as §1
as §2, with “Cells were plated for migration assay 3 days after siRNA transfection and allowed to migrate for 24 hours.” left out

T47D and SKBr3 cells [2] = assay: Actin staining / lamellipodia morphology; type: cell-based; conditions: nocodazole-treated cells
Procedure: Cells were grown on glass coverslips (Falcon, Le Pont De Claix, France) coated with 25 μg/ml rat tail collagen I, serum starved overnight and stimulated with 1 nM HRG-β1 for different times. Cells were fixed in 4% formaldehyde in phosphate buffer saline (PBS) for 20 minutes, permeabilized in 0.2% Triton X-100 for 10 minutes, blocked with 1% bovine serum albumin in PBS for 20 minutes before addition of anti-Myc antibody (Santa Cruz) and Alexa-Fluor 568 goat anti-mouse IgG (Molecular Probes, Leiden, The Netherlands). DNA was counterstained with 0.25 mg/ml Hoechst No. 33342 (Sigma). Actin was stained for 45 minutes with 2 U/ml TRITC-labeled phalloidin (Molecular Probes). Images were recorded with an Axioskop Zeiss microscope coupled to a Sony 3CCD camera or an Olympus IX70 microscope linked to the DeltaVision workstation (Applied Precision, Issaquah, Wa)
F-actin was visualised with TRITC-labelled phalloidin.

T47D and SKBr3 cells [3] = assay: HRG-induced microtubule outgrowth; type: cell-based; conditions: nocodazole-treated cells
ErbB2 = target: T1, ErbB2 (Homo sapiens, UniProt P04626); assay: Shc immunoprecipitation in SKBr3 cells; type: cell-based
T1 construct: endogenous in cells; host or cells: SKBr3 breast carcinoma cells
T1 sequence (P04626 23-1255): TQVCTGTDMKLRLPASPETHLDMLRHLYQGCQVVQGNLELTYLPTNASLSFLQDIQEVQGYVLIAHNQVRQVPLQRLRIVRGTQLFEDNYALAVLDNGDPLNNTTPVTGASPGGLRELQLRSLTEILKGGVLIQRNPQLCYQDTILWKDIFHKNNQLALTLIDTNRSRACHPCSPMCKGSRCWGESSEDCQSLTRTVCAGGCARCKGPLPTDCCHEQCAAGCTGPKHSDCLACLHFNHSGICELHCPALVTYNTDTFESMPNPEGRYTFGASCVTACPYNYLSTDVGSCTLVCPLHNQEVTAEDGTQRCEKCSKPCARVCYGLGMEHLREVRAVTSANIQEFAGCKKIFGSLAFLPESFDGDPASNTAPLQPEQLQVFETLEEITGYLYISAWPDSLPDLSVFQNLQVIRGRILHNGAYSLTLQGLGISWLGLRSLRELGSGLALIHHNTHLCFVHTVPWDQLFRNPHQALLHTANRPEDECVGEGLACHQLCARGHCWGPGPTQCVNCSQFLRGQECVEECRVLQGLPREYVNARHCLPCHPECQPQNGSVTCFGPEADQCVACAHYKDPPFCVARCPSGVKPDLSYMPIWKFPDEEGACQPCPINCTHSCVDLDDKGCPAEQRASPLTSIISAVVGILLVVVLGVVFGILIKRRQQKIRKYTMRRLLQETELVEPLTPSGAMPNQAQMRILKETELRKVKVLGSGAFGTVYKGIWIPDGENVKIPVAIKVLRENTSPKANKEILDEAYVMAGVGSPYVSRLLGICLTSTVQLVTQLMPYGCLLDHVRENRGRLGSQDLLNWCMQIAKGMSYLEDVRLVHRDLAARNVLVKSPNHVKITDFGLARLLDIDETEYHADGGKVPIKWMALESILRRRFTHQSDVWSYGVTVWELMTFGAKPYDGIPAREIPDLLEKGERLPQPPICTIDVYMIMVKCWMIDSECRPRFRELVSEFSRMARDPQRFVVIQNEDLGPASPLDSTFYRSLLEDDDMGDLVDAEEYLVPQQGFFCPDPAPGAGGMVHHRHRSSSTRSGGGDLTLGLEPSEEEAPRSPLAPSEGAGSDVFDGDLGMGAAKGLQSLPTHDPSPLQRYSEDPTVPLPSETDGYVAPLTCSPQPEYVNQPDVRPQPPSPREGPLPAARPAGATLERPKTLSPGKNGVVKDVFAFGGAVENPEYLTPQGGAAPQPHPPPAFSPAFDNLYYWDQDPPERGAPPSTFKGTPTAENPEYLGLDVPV

C[C@@H]1C[C@@H]([C@H](O)CC2CC(=O)NC(=O)C2)C(=O)[C@@H](C)C1 [cycloheximide]
migration rate of Neu cells ([1]; compared with NYPD cells, FIG. 4a): reduced the migration rate of Neu cells to that of NYPD cells
migration of YD cells, cycloheximide treatment and Memo knock-down compared ([1]; effects not additive, FIG. 7d): blocked to a similar extent
HRG-induced migration of Neu cells ([1]; FIG. 4a): strongly blocked

OC[C@H]1O[C@@H](n2cnc3cc(Cl)c(Cl)cc32)[C@H](O)[C@@H]1O [DRB, 5,6-Dichloro-1-β-D-ribofuranosylbenzimidazole]
HRG-induced migration of Neu cells ([1]; FIG. 4a): strongly blocked

FGF2: Fibroblast growth factor (FGF) 2
stimulation of T47D cell migration by ligand (T47D cells): stimulated T47D cell migration

COC(=O)Nc1nc2ccc(C(=O)c3cccs3)cc2[nH]1 [nocodazole]
lamellipodia formation (T47D and SKBr3 cells [2]): still capable of forming lamellipodia
microtubule growth (T47D and SKBr3 cells [3]): do not grow microtubules

EGF: epidermal growth factor (NSDSECPLSHDGYCLHDGVCMYIEALDKYACNCVVGYIGERCQYRDLKWWELR; Epidermal growth factor; UniProt P01133 971-1023, looked up)
stimulation of T47D cell migration by ligand (T47D cells): to a lower degree

insulin: insulin
stimulation of T47D cell migration by ligand (T47D cells): to a lower degree

C[C@@H](Nc1ncnc2[nH]c(-c3ccc(O)cc3)cc12)c1ccccc1 [PKI166]
CGI-27's ability to associate with Shc (ErbB2): did not influence
ErbB2 receptor level in Shc immunoprecipitates (ErbB2): lowered
